Measurements reported in patent US5609749A, “Electrochemical assay method with novel p-phenylenediamine compound” (Mochida Pharmaceutical Co., Ltd., priority 1993, dated 1997).

What was measured:
[1] = Current response of electron mediators in buffer solution and in the presence of blood, urine
Excerpt: Of these oxidation-reduction enzymes, glucose oxidase (GOD) is used in enzyme electrodes for the measurement of blood glucose level and horseradish peroxidase (HRPO) is used as a label enzyme in specific binding assays such as DNA hybridization, immunoassay and the like. […] However, these electron mediators were not able to show stable and reproducible response in the presence of blood, urine and the like because of the interfering substances contained therein.

[2] = biological target: T1, Horseradish peroxidase (HRPO) (Armoracia rusticana, UniProt P00433); assay: Electron transfer activity 2: HRPO-hydrogen peroxide-compound, current at -80 mV or -150 mV; format: biochemical; settings: -80 mV or -150 mV vs Ag/AgCl, pH 6.0
T1 construct: purchased TOYOBO
T1 sequence (P00433 31-338 limits assumed): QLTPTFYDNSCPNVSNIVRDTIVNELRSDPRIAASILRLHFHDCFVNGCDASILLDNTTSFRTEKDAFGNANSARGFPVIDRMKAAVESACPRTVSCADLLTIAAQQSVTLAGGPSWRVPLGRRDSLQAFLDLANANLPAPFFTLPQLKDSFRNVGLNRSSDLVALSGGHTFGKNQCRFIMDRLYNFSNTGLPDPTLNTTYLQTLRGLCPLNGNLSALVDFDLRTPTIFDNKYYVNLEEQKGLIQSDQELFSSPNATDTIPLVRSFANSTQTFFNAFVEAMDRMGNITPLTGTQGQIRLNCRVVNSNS
Description: Measurement of electron transfer activities of TCPD, THEPD, TDHPD, HTEPD, N,N-BHDPD, N,N'-BHPD, N,N'-BHDPD, and p-phenylenediamine derivatives having substituted amino group by reacting p-phenylenediamine with propyleneoxide--2
Horseradish peroxidase (HRPO, manufactured by TOYOBO) was dissolved in 0.1M phosphate buffer (pH 6.0) containing 0.1M NaCl to prepare 0M and 5.0×10^-7 M HRPO solutions. Also, hydrogen peroxide (manufactured by Wako Pure Chemical Industries) was dissolved in the same buffer to prepare a 1.0×10^-1 M solution. In the same manner, each of the TCPD, THEPD, TDHPD, HTEPD, N,N-BHDPD, N,N'-BHPD, N,N'-BHDPD, and p-phenylenediamine derivatives having substituted amino group by reacting p-phenylenediamine with propyleneoxide obtained in Synthesis Examples 1 to 9 was dissolved in the same buffer to prepare a 5.0×10^-3 M solution.
Each of these solutions was mixed in 0.1M phosphate buffer (pH 6.0) containing 0.1M NaCl in the following mixing ratio just before the measurement to prepare solutions of the following compositions A and B, and electric current was measured continuously in the presence (composition A) or absence (composition B) of HRPO.
Using the same apparatus of Test Example 2, electric current was measured in the presence (composition A) or absence (composition B) of HRPO for 5 or 10 minutes after application of potential of -80 mV (vs Ag/AgCl, the same shall apply hereinafter) in the case of TEPD, THEPD, and TDHPD, or -150 mV in the case of TCPD, HTEPD, N,N-BHDPD, N,N'-BHPD, N,N'-BHDPD, and p-phenylenediamine derivatives having substituted amino group by reacting p-phenylenediamine with propyleneoxide.

[3] = Dry chemistry type chips: filter paper impregnated with mediator solution and dried on an electrode; settings: mediator dried on cellulose or glass filter paper, dissolved by liquid sample
Excerpt: In addition, the present inventors have attempted to prepare a dry chemistry type chips by impregnating a piece of cellulose filter paper or glass filter paper with a solution of HQ, PPD, TMPD or TEPD and drying the resulting piece on an electrode (by freeze-drying, vacuum drying, air-drying or the like) or arranging it on an electrode after drying so that the impregnated electron mediator can dissolve in a liquid sample at the time of measurement.

| SMILES | current response ([1]; in a buffer solution) | response in the presence of blood, urine and the like ([1]; interfering substances in blood, urine) | function as electron mediator between HRPO and the electrode [2] | current response and characteristics of dry chemistry type chips [3] |
| --- | --- | --- | --- | --- |
| CCN(CC)c1ccc(N(CC)CC)cc1.Cl.Cl [TEPD, N,N,N',N'-tetraethyl-p-phenylenediamine dihydrochloride, reference compound] | excellent current response | interference | function as a reversible electron mediator between HRPO and the electrode | low current response and extremely poor characteristics |
| Cl.Cl.OCCN(CCO)c1ccc(N(CCO)CCO)cc1 [THEPD, N,N,N',N'-tetrakis-(2'-hydroxyethyl)-p-phenylenediamine dihydrochloride] |  |  | function as a reversible electron mediator between HRPO and the electrode |  |
